Here are results for 24 compounds from ChEMBL document CHEMBL3232711, “Novel inhibitors of the MDM2-p53 interaction featuring hydrogen bond acceptors as carboxylic acid isosteres” (J Med Chem, 2014).

Broadly, the half-life is the time in which the quantity being followed falls by half. A word on the bioavailability: it is the share of a dose that reaches the circulation, judged against a reference dose that is usually intravenous. A word on the clearance: it is a measure of how efficiently the substance is removed, as volume per time.

A short description of data set [1]: Intrinsic clearance in human hepatocytes measured per 10^6 cells. The class given is ADME, cell-based, Hepatocyte. The note with it: read-out: CLH.
A short description of data set [2]: Volume of distribution at steady state in rat at 0.5 mg/kg, iv. The settings on record: in vivo, read-out: Vdss. The class given is ADME, organism-based. Also on record: dose 0.5 mg/kg, route intravenous.
A short description of data set [3]: Half life in mouse at 0.5 mg/kg, iv. The class given is ADME, organism-based. On the set-up: dose 0.5 mg/kg, route intravenous. The settings on record: in vivo.
A short description of data set [4]: Oral bioavailability in mouse at 5 mg/kg. It counts as ADME, organism-based. The settings on record: in vivo.
The nature of data set [5]: Clearance in rat at 0.5 mg/kg, iv. It counts as ADME, organism-based. On the set-up: dose 0.5 mg/kg, route intravenous. The settings on record: in vivo.
Data set [6] is described as follows: Volume of distribution at steady state in mouse at 0.5 mg/kg, iv. The class given is ADME, organism-based. On the set-up: dose 0.5 mg/kg, route intravenous. The note with it: in vivo, read-out: Vdss.
Data set [7] in a line: Half life in rat at 0.5 mg/kg, iv. The class given is ADME, organism-based. The note with it: in vivo. On the set-up: dose 0.5 mg/kg, route intravenous.
Data set [8] can be described thus: Clearance in mouse at 0.5 mg/kg, iv. It counts as ADME, organism-based. Also on record: dose 0.5 mg/kg, route intravenous. The settings on record: in vivo.
Data set [9] is described as follows: Drug metabolism in mouse hepatocytes assessed as oxidative metabolite formation at 10 uM after 2 hrs by LC-MS/MS analysis. It counts as ADME, cell-based, Hepatocyte.
Data set [10] is described as follows: Drug metabolism in rat hepatocytes assessed as 2-(2-(((3R,5R,6S)-1-((S)-2-(tert-butylsulfonyl)-1-cyclopropylethyl)-6-(4-chloro-3-fluorophenyl)-5-(3-chlorophenyl)-3-methyl-2-oxopiperidin-3-yl)methyl)thiazol-5-yl)acetic acid formation at 10 uM after 2 hrs by LC-MS/MS analysis. It counts as ADME, cell-based, Hepatocyte.
Data set [11] is described as follows: Drug metabolism in mouse hepatocytes assessed as 2-(2-(((3R,5R,6S)-1-((S)-2-(tert-butylsulfonyl)-1-cyclopropylethyl)-6-(4-chloro-3-fluorophenyl)-5-(3-chlorophenyl)-3-methyl-2-oxopiperidin-3-yl)methyl)thiazol-5-yl)acetic acid formation at 10 uM after 2 hrs by LC-MS/MS analysis. It counts as ADME, cell-based, Hepatocyte.
Data set [12] can be described thus: Drug metabolism in monkey hepatocytes assessed as 2-(2-(((3R,5R,6S)-1-((S)-2-(tert-butylsulfonyl)-1-cyclopropylethyl)-6-(4-chloro-3-fluorophenyl)-5-(3-chlorophenyl)-3-methyl-2-oxopiperidin-3-yl)methyl)thiazol-5-yl)acetic acid formation at 10 uM after 2 hrs by LC-MS/MS analysis. The class given is ADME, cell-based, Macaca mulatta, Hepatocyte. The settings on record: rhesus monkey.

The nature of data set [13]: Drug metabolism in human hepatocytes assessed as oxidative metabolite formation at 10 uM after 2 hrs by LC-MS/MS analysis. It counts as ADME, cell-based, Hepatocyte.
Data set [14] is described as follows: Drug metabolism in human hepatocytes assessed as 2-(2-(((3R,5R,6S)-1-((S)-2-(tert-butylsulfonyl)-1-cyclopropylethyl)-6-(4-chloro-3-fluorophenyl)-5-(3-chlorophenyl)-3-methyl-2-oxopiperidin-3-yl)methyl)thiazol-5-yl)acetic acid metabolite formation at 10 uM after 2 hrs by LC-MS/MS analysis. The class given is ADME, cell-based, Hepatocyte.
A short description of data set [15]: Drug metabolism in dog hepatocytes assessed as 2-(2-(((3R,5R,6S)-1-((S)-2-(tert-butylsulfonyl)-1-cyclopropylethyl)-6-(4-chloro-3-fluorophenyl)-5-(3-chlorophenyl)-3-methyl-2-oxopiperidin-3-yl)methyl)thiazol-5-yl)acetic acid formation at 10 uM after 2 hrs by LC-MS/MS analysis. The class given is ADME, cell-based, Canis lupus familiaris, Hepatocyte.
The nature of data set [16]: Drug metabolism in monkey hepatocytes assessed as oxidative metabolite formation at 10 uM after 2 hrs by LC-MS/MS analysis. It counts as ADME, cell-based, Macaca mulatta, Hepatocyte. The note with it: rhesus monkey.
Data set [17] in a line: Drug metabolism in rat hepatocytes assessed as oxidative metabolite formation at 10 uM after 2 hrs by LC-MS/MS analysis. The class given is ADME, cell-based, Hepatocyte.
Data set [18] in a line: Drug metabolism in dog hepatocytes assessed as oxidative metabolite formation at 10 uM after 2 hrs by LC-MS/MS analysis. The class given is ADME, cell-based, Canis lupus familiaris, Hepatocyte.

Molecules are shown by their SMILES.

For `CC(C)(C)S(=O)(=O)C[C@H](C1CC1)N1C(=O)[C@@](C)(Cc2ccc(C(=O)O)cn2)C[C@H](c2cccc(Cl)c2)[C@H]1c1ccc(Cl)cc1`, the hepatocyte CLint in [1] was determined as 10 µL/min/1e6 cells. In addition, the Vd in [2] amounted to 0.41 L/kg; in [6], 0.57 L/kg. Further, the half-life was 2.8 h in [3] and 1.8 h in [7]. The compound further had a bioavailability in data set [4] of 60%. In addition, the figures for the clearance in [5] and in data set [8] were 6 mL/min/kg and 3.83 mL/min/kg, respectively.
On to `CC(C)(C)S(=O)(=O)C[C@H](C1CC1)N1C(=O)[C@@](C)(Cc2ncc(CC(=O)O)s2)C[C@H](c2cccc(Cl)c2)[C@H]1c1ccc(Cl)c(F)c1`, for which the Drug metabolism entry is “metabolite_detected” in data set [9]; “metabolite_notdetected” in data set [10]; “metabolite_notdetected” in data set [11]; “metabolite_notdetected” in data set [12]; “metabolite_detected” in data set [13]; “metabolite_notdetected” in data set [14]. The Drug metabolism result in data set [15] is on record as “metabolite_notdetected”; in data set [16] it was “metabolite_detected”; in data set [17], “metabolite_detected”; in data set [18], “metabolite_detected”. The hepatocyte CLint in data set [1] turned out to be 5.5 µL/min/1e6 cells. For the same compound, the Vd was found to be 0.27 L/kg in [2] and 0.35 L/kg in [6]. Besides, the half-life was 3.2 h in [3] and 4.4 h in data set [7]. The bioavailability in [4] came out at 56%. Also, the figures for the clearance in data set [5] and in [8] were 3.83 mL/min/kg and 2.5 mL/min/kg, respectively.
Take `CC(C)(C)S(=O)(=O)C[C@H](C1CC1)N1C(=O)[C@@](C)(Cc2nc(CC(=O)O)cs2)C[C@H](c2cccc(Cl)c2)[C@H]1c1ccc(Cl)cc1`: the hepatocyte CLint in data set [1] came to 5.3 µL/min/1e6 cells.
As for `CC(C)(C)S(=O)(=O)C[C@H](C1CC1)N1C(=O)[C@@](C)(Cc2ccc(C(=O)O)cn2)C[C@H](c2cccc(Cl)c2)[C@H]1c1ccc(Cl)c(F)c1`, the hepatocyte CLint in data set [1] came out at 7.8 µL/min/1e6 cells.
Still for that read-out and setting: the value for `CC(C)(C)S(=O)(=O)C[C@H](C1CC1)N1C(=O)[C@@](C)(Cc2ccc(CC(=O)O)cn2)C[C@H](c2cccc(Cl)c2)[C@H]1c1ccc(Cl)cc1` was 3.4 µL/min/1e6 cells; that for `CC(C)(C(=O)O)c1ccc(C[C@@]2(C)C[C@H](c3cccc(Cl)c3)[C@@H](c3ccc(Cl)cc3)N([C@H](CS(=O)(=O)C(C)(C)C)C3CC3)C2=O)nc1` was under 0.1 µL/min/1e6 cells; that for `Cc1nc(C[C@@]2(C)C[C@H](c3cccc(Cl)c3)[C@@H](c3ccc(Cl)cc3)N([C@H](CS(=O)(=O)C(C)(C)C)C3CC3)C2=O)ccc1C(=O)O` was 26 µL/min/1e6 cells.
On the same count and under the same terms, next, `Cc1cc(C[C@@]2(C)C[C@H](c3cccc(Cl)c3)[C@@H](c3ccc(Cl)cc3)N([C@H](CS(=O)(=O)C(C)(C)C)C3CC3)C2=O)ncc1C(=O)O`: 5.1 µL/min/1e6 cells; `CC(C)(C)S(=O)(=O)C[C@H](C1CC1)N1C(=O)[C@@](C)(Cc2ncc(C(=O)O)cn2)C[C@H](c2cccc(Cl)c2)[C@H]1c1ccc(Cl)cc1`: 10 µL/min/1e6 cells; `CC(C)(C)S(=O)(=O)C[C@H](C1CC1)N1C(=O)[C@@](C)(Cc2ncc(C(=O)O)cn2)C[C@H](c2cccc(Cl)c2)[C@H]1c1ccc(Cl)c(F)c1`: 14 µL/min/1e6 cells.
Turning to `CC(C)(C)S(=O)(=O)C[C@H](C1CC1)N1C(=O)[C@@](C)(Cc2cnc(C(=O)O)cn2)C[C@H](c2cccc(Cl)c2)[C@H]1c1ccc(Cl)cc1`, the hepatocyte CLint in [1] was found to be 25 µL/min/1e6 cells.
`CC(C)(C)S(=O)(=O)C[C@H](C1CC1)N1C(=O)[C@@](C)(Cn2cc(C(=O)O)cn2)C[C@H](c2cccc(Cl)c2)[C@H]1c1ccc(Cl)cc1`: the hepatocyte CLint in data set [1] came to 2.8 µL/min/1e6 cells.
As to `CC(C)(C)S(=O)(=O)C[C@H](C1CC1)N1C(=O)[C@@](C)(Cc2nc(C(=O)O)cs2)C[C@H](c2cccc(Cl)c2)[C@H]1c1ccc(Cl)cc1`, in data set [1], the hepatocyte CLint was 1.8 µL/min/1e6 cells.
Take `CC(C)(C)S(=O)(=O)C[C@H](C1CC1)N1C(=O)[C@@](C)(Cc2ncc(C(=O)O)s2)C[C@H](c2cccc(Cl)c2)[C@H]1c1ccc(Cl)cc1`: in [1], the hepatocyte CLint came to 8.7 µL/min/1e6 cells. Moreover, the Vd in data set [2] turned out to be 0.18 L/kg; in data set [6] it was 0.67 L/kg. Besides, the half-life in data set [3] is 3.3 h; in data set [7] it was 3.6 h. In addition, in [4], the bioavailability is 18%. The clearance was 3.17 mL/min/kg in data set [5] and 5.83 mL/min/kg in data set [8].
For `CC(C)(C)S(=O)(=O)C[C@H](C1CC1)N1C(=O)[C@@](C)(Cc2ncc(C(=O)CO)s2)C[C@H](c2cccc(Cl)c2)[C@H]1c1ccc(Cl)cc1`, the hepatocyte CLint in data set [1] was determined as 47 µL/min/1e6 cells.
Regarding `CC(C)(C)S(=O)(=O)C[C@H](C1CC1)N1C(=O)[C@@](C)(Cc2ncc(C(=O)O)s2)C[C@H](c2cccc(Cl)c2)[C@H]1c1ccc(Cl)c(F)c1`, the hepatocyte CLint in data set [1] is 10 µL/min/1e6 cells. In addition, the Vd in data set [2] was 0.41 L/kg; in [6], 0.53 L/kg. For the same compound, the values for the half-life in data set [3] and in data set [7] were 4.1 h and 2.3 h, respectively. Also, the bioavailability in data set [4] turned out to be 36%. Besides, the figures for the clearance in [5] and in data set [8] were 1.5 mL/min/kg and 2.5 mL/min/kg, respectively.
Take `CC(C)(C)S(=O)(=O)C[C@H](C1CC1)N1C(=O)[C@@](C)(Cc2nccs2)C[C@H](c2cccc(Cl)c2)[C@H]1c1ccc(Cl)c(F)c1`: the hepatocyte CLint in data set [1] was 14 µL/min/1e6 cells.
For the compound `CC(C)(C)S(=O)(=O)C[C@H](C1CC1)N1C(=O)[C@@](C)(Cc2ncc(CC(=O)O)s2)C[C@H](c2cccc(Cl)c2)[C@H]1c1ccc(Cl)cc1`, in data set [1], the hepatocyte CLint was found to be 5.8 µL/min/1e6 cells. The Vd in data set [2] came out at 0.74 L/kg; in data set [6], 0.72 L/kg. The half-life in data set [3] was 2.01 h; in data set [7] it was 1.81 h. The compound further yielded a bioavailability in data set [4] of 10%. Besides, the clearance was 22.8 mL/min/kg in data set [5] and 7.17 mL/min/kg in [8].
For the compound `CC(C)(C(=O)O)c1cnc(C[C@@]2(C)C[C@H](c3cccc(Cl)c3)[C@@H](c3ccc(Cl)cc3)N([C@H](CS(=O)(=O)C(C)(C)C)C3CC3)C2=O)s1`, in [1], the hepatocyte CLint was determined as 3.6 µL/min/1e6 cells.
On the same count and under the same terms, next, `CC(C)(C)S(=O)(=O)C[C@H](C1CC1)N1C(=O)[C@@](C)(Cc2ncc(C3(C(=O)O)CC3)s2)C[C@H](c2cccc(Cl)c2)[C@H]1c1ccc(Cl)cc1`: 7.7 µL/min/1e6 cells.
Still for that read-out and setting: next, `CC(C)(C)S(=O)(=O)C[C@H](C1CC1)N1C(=O)[C@@](C)(Cc2ncc(C(F)(F)C(=O)O)s2)C[C@H](c2cccc(Cl)c2)[C@H]1c1ccc(Cl)c(F)c1`: 4.7 µL/min/1e6 cells; `CC(C)(C)S(=O)(=O)C[C@H](C1CC1)N1C(=O)[C@@](C)(Cc2ncc(CC(=O)O)o2)C[C@H](c2cccc(Cl)c2)[C@H]1c1ccc(Cl)c(F)c1`: 4.3 µL/min/1e6 cells.
The same measure, in the same setting: next, `CC(C)(C)S(=O)(=O)C[C@H](C1CC1)N1C(=O)[C@@](C)(Cc2nnc(CC(=O)O)[nH]2)C[C@H](c2cccc(Cl)c2)[C@H]1c1ccc(Cl)cc1`: 10 µL/min/1e6 cells.
For the compound `CC(C)(C)S(=O)(=O)C[C@H](C1CC1)N1C(=O)[C@@](C)(Cc2ncc(CC(=O)O)[nH]2)C[C@H](c2cccc(Cl)c2)[C@H]1c1ccc(Cl)cc1`, in data set [1], the hepatocyte CLint was 5 µL/min/1e6 cells.
